Measurements: patent US9034894B2, “Derivate, preparation method and use of 10-methoxycamptothecin” (NORTHEAST FORESTRY UNIVERSITY, priority 2011, dated 2015)

system: ovarian cancer cell line 2774; assay: thiazole blue colorimetric method, half inhibitory concentration on ovarian cancer cell line 2774; format: cell-based

| SMILES | IC50 [µM] |
| --- | --- |
| CCC(=O)OC1(CC)C(=O)OCc2c1cc1n(c2=O)Cc2cc3cc(OC)ccc3nc2-1 (stereo not shown) [10-methoxycamptothecin-20-O-propionate] | 842 ± 50.1 |
| CCC1(OC(=O)[C@H](C)NC(=O)OC(C)(C)C)C(=O)OCc2c1cc1n(c2=O)Cc2cc3cc(OC)ccc3nc2-1 (stereo partly drawn) [10-methoxycamptothecin-20-O—(N′-t-butoxycarbonyl)-L-alanine ester] | 46.7 ± 21.7 |
| CCC1(OC(=O)[C@H](Cc2ccccc2)NC(=O)OC(C)(C)C)C(=O)OCc2c1cc1n(c2=O)Cc2cc3cc(OC)ccc3nc2-1 (stereo partly drawn) [10-methoxycamptothecin-20-O—(N′-t-butoxycarbonyl)-L-phenylalanine ester] | 394 ± 21.7 |
| CCC1(OC(=O)[C@@H](NC(=O)OC(C)(C)C)C(C)C)C(=O)OCc2c1cc1n(c2=O)Cc2cc3cc(OC)ccc3nc2-1 (stereo partly drawn) [10-methoxycamptothecin-20-O—(N′-t-butoxycarbonyl)-L-valine ester] | 1970 ± 93.6 |
